Test results as given in patent publication US12473262B2, “Aryl hydrocarbon receptor activators” (Oregon State University, priority 2019, dated 2025).

Molecular target: aryl hydrocarbon receptor (AhR) (Mus musculus (Mouse), UniProt P30561)
Test: AhR ligand screening: AhRE-luciferase reporter in transfected Hepa1 cells
Format: cell-based
Settings: for Fold @ 1 nM: fold change of luciferase expression at 1 nM test compound relative to vehicle (0.1% DMSO); for Fold @ 100 nM: fold change of luciferase expression at 100 nM test compound relative to vehicle (0.1% DMSO); for Fold @ 10 uM: fold change of luciferase expression at 10 uM test compound relative to vehicle (0.1% DMSO); for Fold relative to benchmark @ 100 nM: luciferase expression at 100 nM test compound relative to 100 nM benchmark compound 11-cl-BBQ
Excerpt: The AhR is a ligand-activated transcription factor that dimerizes with ARNT to regulate gene expression, and genes that are regulated by AhR ligands have AhR response elements (AhRE) in their promotor regions.
Briefly, Hepa1 cells were transfected with a reporter construct consisting of AhRE linked to luciferase. The addition of AhR ligands to the transfected cells induces luciferase production that is directly proportional to the amount of AhR activation. We used this reporter system to identify novel compounds with AhR-activating properties. Transfected Hepa1 cells were plated at a density of 1×10^4 cells/well in 100 μL of cell culture media in 96 well plates and grown overnight. […] Following incubation with the compounds, the media was removed, and cells were harvested with lysis buffer. The lysates were transferred to opaque 96 well plates, where they were assayed well-by-well for luciferase activity by injection of luciferase assay substrate with a 2 sec mixing time and 15 sec integration period on a Tropix TR717 microplate luminometer. Data were expressed as fold induction of luciferase relative to vehicle (0.1% DMSO) treated cells.

Sequence of aryl hydrocarbon receptor (AhR) (P30561 10-805): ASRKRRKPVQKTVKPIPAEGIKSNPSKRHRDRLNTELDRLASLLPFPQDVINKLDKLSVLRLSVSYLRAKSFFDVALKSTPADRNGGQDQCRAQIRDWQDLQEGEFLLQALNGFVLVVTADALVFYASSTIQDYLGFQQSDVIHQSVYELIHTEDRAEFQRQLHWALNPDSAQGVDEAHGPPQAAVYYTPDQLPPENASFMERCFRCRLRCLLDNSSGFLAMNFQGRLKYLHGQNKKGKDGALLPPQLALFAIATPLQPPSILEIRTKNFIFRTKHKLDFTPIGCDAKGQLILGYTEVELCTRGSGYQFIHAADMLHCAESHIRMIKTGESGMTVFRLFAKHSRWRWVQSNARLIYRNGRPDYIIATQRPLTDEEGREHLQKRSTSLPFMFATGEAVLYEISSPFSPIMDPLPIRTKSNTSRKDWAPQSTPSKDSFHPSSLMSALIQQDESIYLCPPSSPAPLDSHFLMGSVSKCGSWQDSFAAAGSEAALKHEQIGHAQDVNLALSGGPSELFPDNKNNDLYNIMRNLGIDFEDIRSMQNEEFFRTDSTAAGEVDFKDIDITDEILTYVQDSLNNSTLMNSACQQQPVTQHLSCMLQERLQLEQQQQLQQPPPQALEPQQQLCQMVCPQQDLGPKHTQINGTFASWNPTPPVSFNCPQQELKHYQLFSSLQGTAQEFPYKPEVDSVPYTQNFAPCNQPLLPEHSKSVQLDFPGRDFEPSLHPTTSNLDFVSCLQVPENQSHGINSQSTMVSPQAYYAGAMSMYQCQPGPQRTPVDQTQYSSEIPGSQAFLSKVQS
Sequence of aryl hydrocarbon receptor (AhR) (P53762 whole entry partner): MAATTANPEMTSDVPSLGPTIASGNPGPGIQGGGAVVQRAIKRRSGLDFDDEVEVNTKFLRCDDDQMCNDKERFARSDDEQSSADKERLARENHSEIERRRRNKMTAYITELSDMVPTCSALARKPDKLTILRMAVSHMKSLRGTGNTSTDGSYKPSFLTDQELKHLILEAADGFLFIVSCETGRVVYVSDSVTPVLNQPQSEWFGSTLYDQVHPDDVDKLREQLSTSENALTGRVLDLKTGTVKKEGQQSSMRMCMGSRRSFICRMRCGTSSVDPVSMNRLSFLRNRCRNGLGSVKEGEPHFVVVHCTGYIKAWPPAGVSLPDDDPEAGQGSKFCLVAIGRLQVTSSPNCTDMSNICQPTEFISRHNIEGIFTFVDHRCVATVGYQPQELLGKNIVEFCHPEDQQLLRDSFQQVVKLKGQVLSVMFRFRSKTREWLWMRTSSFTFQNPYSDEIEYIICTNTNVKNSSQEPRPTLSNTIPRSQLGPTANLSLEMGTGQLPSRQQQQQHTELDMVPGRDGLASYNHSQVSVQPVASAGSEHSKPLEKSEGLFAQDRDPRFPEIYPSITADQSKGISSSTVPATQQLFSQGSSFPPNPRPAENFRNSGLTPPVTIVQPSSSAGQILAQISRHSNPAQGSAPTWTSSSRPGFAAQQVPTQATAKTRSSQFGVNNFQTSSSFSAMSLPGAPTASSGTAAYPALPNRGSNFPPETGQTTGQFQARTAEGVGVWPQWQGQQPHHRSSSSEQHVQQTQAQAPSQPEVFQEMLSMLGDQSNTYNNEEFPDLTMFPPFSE

| SMILES | Fold @ 1 nM [fold] | Fold @ 100 nM [fold] | Fold @ 10 uM [fold] | Fold relative to benchmark @ 100 nM [fold] |
| --- | --- | --- | --- | --- |
| Cn1ncc2c(-c3nc4cc(Cl)ccc4n3C(=O)c3ccc(F)c(F)c3)cccc21 [Compound 860] | 1 | 3 | 88 | 0.1 |
| O=C(c1ccc(F)c(F)c1)n1c(-c2csc3ccccc23)nc2ccc(Cl)cc21 [Compound 862] | 1 | 2 | 82 | 0.07 |
| O=C(c1ccc2c(c1)nc(-c1cccc3ccccc13)n2Cc1ccc(SC(F)(F)F)cc1)N1CCCCC1 [Compound 1411] | 1 | 1 | 4 | 0.03 |
| Cc1ccc(C(=O)n2c(-c3cccc4ccccc34)nc3cc(Cl)ccc32)cc1 [Compound 697] | 1 | 23 | 22 | 0.88 |
| O=C(c1ccc(F)cc1F)n1c(-c2cccc3ccccc23)nc2cc(Cl)ccc21 [Compound 694] | 2 | 32 | 35 | 1.23 |
| O=C1c2ccccc2-c2nc3cc(Cl)ccc3n21 [Compound 489, 5-chloro-1,8-diazatetracyclo-[7.7.0.0^2,70.^10,15]hexadeca-2,4,6,8,10,12,14-heptaen-16-one] | 1 | 1 | 5 | 0.03 |
| O=C(c1ccc(F)c(F)c1)n1c(-c2cccc3ccccc23)nc2ccc(Br)cc21 [Compound 690] | 2 | 22 | 30 | 0.85 |
| COC(=O)c1ccc2nc(-c3cccc4ccccc34)n(S(=O)(=O)c3ccc(C#N)cc3)c2c1 [Compound 1362] | 5 | 3 | 18 | 0.1 |
| CC1(O)c2cccc3cccc(c23)-c2nc3ccccc3n21 (stereo not shown) [Compound 525, 7-methyl-7H-benzo[de]benzo[4,5]imidazo[2,1-a]isoquinolin-7-ol] | 1 | 5.6 | 20 | 0.4 |
| O=c1c2cccc3cccc(c32)c2cc3ccc(Cl)cc3n12 [Compound 405, 7-chloro-10-azapentacyclo[10.7.1.0^2,10.0^4,9.0^16,20]icosa 1(19),2,4(9),5,7,12,14,16(20),17-nonaen-11-one] | 8 | 31 | – | 0.78 |
| O=C(c1ccc2c(c1)nc(-c1cccc3ccccc13)n2Cc1cccc2ccccc12)N1CCOCC1 [Compound 1408] | 1 | 1 | 4 | 0.03 |
| O=C(C1CCCCC1)n1c(-c2cc3ccccc3o2)nc2cc(Cl)ccc21 [Compound 859] | 1 | 12 | 80 | 0.41 |
| O=C(c1ccc2nc(-c3cccc4ccccc34)n(Cc3ccc(SC(F)(F)F)cc3)c2c1)N1CCCCC1 [Compound 1412] | 1 | 1 | 6 | 0.03 |
| O=C(c1ccc2c(c1)nc(-c1cccc3ccccc13)n2S(=O)(=O)c1ccc2ccccc2c1)N1CCOCC1 [Compound 1363] | 1 | 1 | 4 | 0.03 |
| COC(=O)c1ccc2c(c1)nc(-c1cccc3ccccc13)n2S(=O)(=O)c1ccc(C#N)cc1 [Compound 1361] | 1 | 2 | 2 | 0.07 |
| N#Cc1ccc(C(=O)n2c(-c3cccc4ccccc34)nc3cc(Cl)ccc32)cc1 [Compound 688] | 2 | 28 | 44 | 1.08 |
| Cc1ccc2c(c1)nc(-c1cccc3ccccc13)n2C(=O)c1ccccc1 [Compound 701] | 1 | 2 | 35 | 0.08 |
| O=C(c1cccc2ccccc12)n1c(-c2ccccc2)nc2ccc(Cl)cc21 [Compound 491] | 1 | 1 | 24 | 0.03 |

| SMILES | Fold @ 1 nM [fold] | Fold @ 100 nM [fold] | Fold @ 10 uM [fold] | Fold relative to benchmark @ 100 nM [fold] |
| --- | --- | --- | --- | --- |
| COC(=O)c1ccc2c(c1)nc(-c1cccc3ccccc13)n2C(=O)c1ccc(OC(F)(F)F)cc1 [Compound 1342] | 1 | 2 | 2 | 0.07 |
| Clc1ccc2c(c1)nc(-c1cccc3ccccc13)n2Cc1ccnc2ccccc12 [Compound 867] | 1 | 2 | 32 | 0.07 |
| O=C(c1ccc2c(c1)nc(-c1cccc3ccccc13)n2Cc1ccc(F)cc1)N1CCOCC1 [Compound 1403] | 1 | 2 | 20 | 0.07 |
| O=C(c1ccc(F)c(F)c1)n1c(-c2cccc3ccccc23)nc2cc(OC(F)(F)F)ccc21 [Compound 699] | 1 | 22 | 24 | 0.85 |
| COc1ccc(C(=O)n2c(-c3cc4ccccc4s3)nc3cc(F)ccc32)cc1 [Compound 634] | 1 | 2 | 22 | 0.22 |
| O=C(c1ccc(OC(F)(F)F)cc1)n1c(-c2cccc3ccccc23)nc2cc(Cl)ccc21 [Compound 696] | 1 | 22 | 51 | 0.85 |
| COc1ccc(Cn2c(-c3cccc4ccccc34)nc3cc(Cl)ccc32)cc1 [Compound 852] | 1 | 1 | 29 | 0.03 |
| O=C(c1ccc(F)c(F)c1)n1c(-c2csc3ccccc23)nc2cc(Cl)ccc21 [Compound 861] | 1 | 2 | 90 | 0.07 |
| O=C(c1ccccc1)n1c(-c2ccc3ccccc3c2)nc2cc(F)ccc21 [Compound 584] | 1 | 3 | 31 | 0.2 |
| N#Cc1ccc(C(=O)n2c(-c3cccc4ccccc34)nc3ccc(Cl)cc32)cc1 [Compound 689] | 1 | 28 | 47 | 1.08 |
| O=C(c1ccc2nc(-c3cccc4ccccc34)n(S(=O)(=O)c3cccc(F)c3)c2c1)N1CCCCC1 [Compound 1369] | 1 | 1 | 2 | 0.03 |
| Clc1ccc2c(c1)nc1n2Cc2ccccc2-1 [Compound 522, 7-chloro-11H-benzo[4,5]imidazo[2,1-a]isoindole] | 1 | 1 | 18 | 0.07 |
| O=C(c1ccc(OC(F)(F)F)cc1)c1c[nH]c2ccc(Cl)cc12 [Compound 881] | 1 | 2 | 18 | 0.04 |
| O=C(c1ccccc1)n1c(-c2ccc(F)cc2)nc2ccc(Cl)cc21 [Compound 493] | 1 | 1 | 16 | 0.03 |
| O=C(c1ccc2nc(-c3cccc4ccccc34)n(S(=O)(=O)c3ccc(Cl)cc3)c2c1)N1CCOCC1 [Compound 1359] | 1 | 1 | 2 | 0.03 |
| COc1ccc(C(=O)n2c(-c3cccc4ccccc34)nc3cc(C)ccc32)cc1 [Compound 702] | 1 | 1 | – | 0.04 |
| Cc1ccc(S(=O)(=O)n2c(-c3cccc4ccccc34)nc3ccccc32)cc1 [Compound 579] | 1 | 1 | 2 | 0.07 |
| O=C(c1ccc(C(F)(F)F)cc1)c1c[nH]c2ccc(Cl)cc12 [Compound 883] | 1 | 1 | 2 | 0.02 |
